{
  "source": "paper PMC8168342",
  "about": "(Chemical biology & drug design, 2021)",
  "molecular_target": "T1, androgen receptor (AR) (Homo sapiens, UniProt P10275)",
  "T1 sequence (P10275 1-920)": "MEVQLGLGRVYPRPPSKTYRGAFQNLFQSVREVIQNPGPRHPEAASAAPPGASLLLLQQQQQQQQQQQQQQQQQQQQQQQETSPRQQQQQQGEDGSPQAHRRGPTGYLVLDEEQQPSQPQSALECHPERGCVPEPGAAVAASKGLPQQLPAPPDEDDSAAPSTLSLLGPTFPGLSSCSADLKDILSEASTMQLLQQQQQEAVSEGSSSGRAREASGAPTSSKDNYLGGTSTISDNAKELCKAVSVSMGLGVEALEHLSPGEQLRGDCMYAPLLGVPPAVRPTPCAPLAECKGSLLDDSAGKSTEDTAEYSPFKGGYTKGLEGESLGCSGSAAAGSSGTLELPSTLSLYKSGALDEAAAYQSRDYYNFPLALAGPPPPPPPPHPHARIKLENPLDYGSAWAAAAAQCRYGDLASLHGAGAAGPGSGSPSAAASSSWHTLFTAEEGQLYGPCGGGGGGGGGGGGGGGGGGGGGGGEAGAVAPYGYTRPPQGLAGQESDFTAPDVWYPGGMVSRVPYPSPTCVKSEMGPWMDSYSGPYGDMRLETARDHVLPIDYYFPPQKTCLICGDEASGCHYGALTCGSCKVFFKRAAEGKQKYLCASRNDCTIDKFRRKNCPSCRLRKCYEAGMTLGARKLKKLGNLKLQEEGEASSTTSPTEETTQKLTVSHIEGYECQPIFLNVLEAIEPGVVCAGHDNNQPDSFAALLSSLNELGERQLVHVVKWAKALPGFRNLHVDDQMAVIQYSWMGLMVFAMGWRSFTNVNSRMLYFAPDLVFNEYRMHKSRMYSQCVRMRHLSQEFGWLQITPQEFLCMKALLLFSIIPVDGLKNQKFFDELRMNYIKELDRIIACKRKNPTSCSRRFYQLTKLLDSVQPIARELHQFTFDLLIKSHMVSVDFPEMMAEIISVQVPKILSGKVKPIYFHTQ",
  "test": "ARE luciferase reporter assay in MDA-kb2 cells, antagonism of […] DHT",
  "type": "cell-based",
  "data": [
    {"smiles": "CC1(C)C(=O)N(c2ccc(C#N)c(C(F)(F)F)c2)C(=S)N1c1ccc(CCCCCCO)nc1", "note": "[10b, 4-(3-(6-(6-Hydroxyhexyl)pyridin-3-yl)-4,4-dimethyl-5-oxo-2-thioxoimidazolidin-1-yl)-2-(trifluoromethyl) benzonitrile]", "values": [
      {"measurement": "% inhibition at 1 μM", "value": 60}
    ]},
    {"smiles": "CC1(C)C(=O)N(c2ccc(C#N)c(C(F)(F)F)c2)C(=S)N1c1ccc(CCCCCCN=[N+]=[N-])nc1", "note": "[11b, 4-(3-(6-(6-Azidohexyl)pyridin-3-yl)-4,4-dimethyl-5-oxo-2-thioxoimidazolidin-1-yl)-2-(trifluoromethyl) benzonitrile]", "values": [
      {"measurement": "% inhibition at 1 μM", "value": 60}
    ]}
  ]
}
